According to ChEMBL document CHEMBL4402583, “Rational Substitution of ε-Lysine for α-Lysine Enhances the Cell and Membrane Selectivity of Pore-Forming Melittin” (J Med Chem, 2020):
Values after ≈ are worked out from the molar mass of the structure shown. Active and inactive are the calls of the source. The rule behind the calls is not given here.

What was measured:
Oryctolagus cuniculus [1] = experiment: Induction of reepithelialization in injured New Zealand white rabbit cornea assessed as wound healing at 0.3% administered topically for qid measured at day 1 post-injury by fluorescein sodium staining based microscopic imaging analysis (reference value: 89.9 +/- 2.9 %); type: organism-based; details: in vivo, topical_or_ocular
Oryctolagus cuniculus [2] = experiment: Induction of reepithelialization in injured New Zealand white rabbit cornea assessed as wound healing administered topically for qid measured at day 4 post-injury by fluorescein sodium staining based microscopic imaging analysis (reference value: 48.4 +/- 7.6 %); type: organism-based; details: in vivo, topical_or_ocular
Acinetobacter baumannii [3] = experiment: Antibacterial activity against Acinetobacter baumannii 1001 assessed as reduction in bacterial viability at 2 or 4 times MIC incubated up to 24 hrs in MHB medium followed by reincubation on MH agar plate for 24 to 48 hrs by time kill kinetics assay; type: functional, organism-based
NHDF = experiment: Cytotoxicity against HDF cells assessed as truncation and reduction in cytoskeleton at 500 ug/ml incubated for 24 hrs by Alexa Fluor […] phalloidin-FITC/Hoescht dye staining based fluorescence microscopic analysis; type: cell-based; details: human
Escherichia coli [4] = experiment: Antibacterial activity against Escherichia coli 1004 assessed as reduction in bacterial viability at 2 or 4 times MIC incubated up to 24 hrs in MHB medium followed by reincubation on MH agar plate for 24 to 48 hrs by time kill kinetics assay; type: functional, organism-based
Acinetobacter baumannii [5] = experiment: Antibacterial activity against multidrug-resistant Acinetobacter baumannii assessed as reduction in bacterial growth incubated for 24 hrs by broth microdilution method; type: functional
Enterobacteriaceae = experiment: Antibacterial activity against Carbapenem-Resistant Enterobacteriaceae assessed as reduction in bacterial growth incubated for 24 hrs by broth microdilution method; type: functional
Enterococcus faecalis [6] = experiment: Antibacterial activity against vancomycin-resistant Enterococcus faecalis 1010 assessed as log10 reduction in bacterial viability at 2 to 4 times MIC incubated for 30 mins in MHB medium followed by reincubation on MH agar plate for 24 to 48 hrs by time kill kinetics analysis; type: functional
HaCaT = experiment: Cytotoxicity against human HaCaT cells assessed as truncation and reduction in cytoskeleton at 500 ug/ml incubated for 24 hrs by Alexa Fluor […] phalloidin-FITC/Hoescht dye staining based fluorescence microscopic analysis; type: cell-based
Pseudomonas aeruginosa = experiment: Antibacterial activity against Pseudomonas aeruginosa assessed as reduction in bacterial growth incubated for 24 hrs by broth microdilution method; type: functional
T-cell [7] = experiment: Immunogenicity in human PBL T cells assessed as increase in IL-4 production at 62.5 or 125 ug/ml incubated for 24 hrs by ELISA; type: ADME, cell-based
Klebsiella pneumoniae = experiment: Antibacterial activity against Klebsiella pneumoniae 1008 assessed as reduction in bacterial viability at 2 or 4 times MIC incubated up to 24 hrs in MHB medium followed by reincubation on MH agar plate for 24 to 48 hrs by time kill kinetics assay; type: functional, organism-based
[8] = Stability of the compound in rabbit tear fluid measured after 2 hrs by UPLC-MS analysis; type: ADME, Oryctolagus cuniculus
Acinetobacter baumannii [9] = experiment: Induction of pore formation in intact Acinetobacter baumannii 1001 cell membrane assessed as SG uptake at 2 times MIC by SG dye based fluorescence based assay; type: organism-based
Oryctolagus cuniculus [10] = experiment: Induction of reepithelialization in injured New Zealand white rabbit cornea assessed as wound healing administered topically for qid measured at day 6 post-injury by fluorescein sodium staining based microscopic imaging analysis (reference value: 24.1 +/- 8.5 %); type: organism-based; details: in vivo, topical_or_ocular
Staphylococcus aureus [11] = experiment: Antibacterial activity against methicillin-sensitive Staphylococcus aureus assessed as reduction in bacterial growth incubated for 24 hrs by broth microdilution method; type: functional
T-cell [12] = experiment: Immunogenicity in human PBL T cells assessed as increase in IFN-gamma production at 62.5 or 125 ug/ml incubated for 24 hrs by ELISA; type: ADME, cell-based
Enterococcus faecalis [13] = experiment: Resistance index, ratio of MIC for vancomycin-resistant Enterococcus faecalis 1010 measured after 18 serial passages by broth microdilution method to MIC for vancomycin-resistant Enterococcus faecalis 1010 incubated for 24 hrs by broth microdilution method; type: functional
Escherichia coli [14] = experiment: Induction of pore formation in intact Escherichia coli 1004 cell membrane assessed as SG uptake at 2 times MIC by SG dye based fluorescence based assay; type: organism-based
Oryctolagus cuniculus [15] = experiment: Induction of reepithelialization in injured New Zealand white rabbit cornea assessed as wound healing administered topically for qid measured at day 2 post-injury by fluorescein sodium staining based microscopic imaging analysis (reference value: 76.6 +/- 4.5 %); type: organism-based; details: in vivo, topical_or_ocular
[16] = Cytotoxicity against HDF cells assessed as cell viability at 500 ug/ml incubated for 24 hrs by MTS assay relative to control; type: cell-based; details: human, HDF cells (NHDF, human dermal fibroblasts); read-out: Activity
Candida albicans = experiment: Antifungal activity against Candida albicans assessed as reduction in fungal growth incubated for 24 hrs by broth microdilution method; type: functional
Enterococcus faecalis [17] = experiment: Induction of pore formation in intact vancomycin-resistant Enterococcus faecalis ATCC 29212 cell membrane assessed as SG uptake at 2 times MIC by SG dye based fluorescence based assay; type: organism-based
Enterococcus = experiment: Antibacterial activity against vancomycin-resistant Enterococcus assessed as reduction in bacterial growth incubated for 24 hrs by broth microdilution method; type: functional
[18] = Hemolytic activity against human erythrocytes assessed as hemoglobin release incubated for 1 hr; type: ADME, cell-based, Erythrocyte; details: read-out: HD50
Enterococcus faecalis [19] = experiment: Induction of pore formation in intact vancomycin-resistant Enterococcus faecalis 1002 cell membrane assessed as SG uptake at 2 times MIC by SG dye based fluorescence based assay; type: organism-based
[20] = Stability of the compound in rabbit tear fluids assessed as parent compound remaining measured after 4 hrs by UPLC-MS analysis; type: ADME, Oryctolagus cuniculus; details: tear fluid, read-out: Stability
Oryctolagus cuniculus [21] = experiment: Induction of reepithelialization in injured New Zealand white rabbit cornea assessed as wound healing administered topically for qid measured at day 3 post-injury by fluorescein sodium staining based microscopic imaging analysis (reference value: 63.9 +/- 5.3 %); type: organism-based; details: in vivo, topical_or_ocular
Enterococcus faecalis [22] = experiment: Antibacterial activity against vancomycin-resistant Enterococcus faecalis ATCC 29212 assessed as log10 reduction in bacterial viability at 2 to 4 times MIC incubated for 30 mins in MHB medium followed by reincubation on MH agar plate for 24 to 48 hrs by time kill kinetics analysis; type: functional
Staphylococcus aureus [23] = experiment: Antibacterial activity against methicillin-resistance Staphylococcus aureus assessed as reduction in bacterial growth incubated for 24 hrs by broth microdilution method; type: functional
Enterococcus faecalis [24] = experiment: Antibacterial activity against vancomycin-resistant Enterococcus faecalis 1002 assessed as log10 reduction in bacterial viability at 2 to 4 times MIC incubated for 30 mins in MHB medium followed by reincubation on MH agar plate for 24 to 48 hrs by time kill kinetics analysis; type: functional
Acinetobacter baumannii [25] = experiment: Antibacterial activity against Acinetobacter baumannii ATCC 19606 assessed as reduction in bacterial growth at sublethal concentrations measured after 20 serial passages by broth microdilution method; type: functional, organism-based; details: ATCC 19606 = CIP 70.34 = JCM 6841
Oryctolagus cuniculus [26] = experiment: Induction of reepithelialization in injured New Zealand white rabbit cornea assessed as wound healing administered topically for qid measured at day 5 post-injury by fluorescein sodium staining based microscopic imaging analysis (reference value: 39.8 +/- 6.2 %); type: organism-based; details: in vivo, topical_or_ocular
Oryctolagus cuniculus [27] = experiment: Induction of reepithelialization in injured New Zealand white rabbit cornea assessed as wound healing administered topically for qid measured at day 8 post-injury by fluorescein sodium staining based microscopic imaging analysis (reference value: 3.8 %); type: organism-based; details: in vivo, topical_or_ocular
T-cell [28] = experiment: Immunogenicity in human PBL T cells assessed as increase in IL-2 production at 62.5 or 125 ug/ml incubated for 24 hrs by ELISA; type: ADME, cell-based
Oryctolagus cuniculus [29] = experiment: Induction of reepithelialization in injured New Zealand white rabbit cornea assessed as wound healing administered topically for qid measured at day 7 post-injury by fluorescein sodium staining based microscopic imaging analysis (reference value: 8.6 %); type: organism-based; details: in vivo, topical_or_ocular
T-cell [30] = experiment: Immunogenicity in human PBL T cells assessed as increase in IL-5 production at 62.5 or 125 ug/ml incubated for 24 hrs by ELISA; type: ADME, cell-based
Enterococcus faecalis [31] = experiment: Antibacterial activity against vancomycin-resistant Enterococcus faecalis 1010 assessed as reduction in bacterial growth measured after 24 hrs by broth microdilution method; type: functional; details: Enterococcus faecalis, 1010, 24 h
Staphylococcus aureus [32] = experiment: In vivo antibacterial activity against Staphylococcus aureus ATCC 29213 infected in C57BL/6 mouse assessed as reduction in bacterial burden by measuring log10 CFU/cornea at 0.3% administered topically as two times on day 1, four times on day 2 and two times on day 3 measured at 48 hrs post-final dose by 10 fold serial dilution method (reference value: 6.5 +/- 0.7 log10CFU); type: functional
Enterococcus faecalis [33] = experiment: Antibacterial activity against Mel-5-resistant vancomycin-resistant Enterococcus faecalis 1010 assessed as reduction in bacterial growth measured after 24 hrs by broth microdilution method; type: functional; details: Enterococcus faecalis, 1010, 24 h
Enterococcus faecalis [34] = experiment: Ratio of MIC for vancomycin-resistant Enterococcus faecalis 1010 to MIC for Mel-5-resistant vancomycin-resistant Enterococcus faecalis 1010 incubated for 24 hrs by broth microdilution method; type: functional

CC[C@H](C)[C@H](NC(=O)CN)C(=O)NCC(=O)N[C@@H](C)C(=O)N[C@H](C(=O)N[C@@H](CC(C)C)C(=O)NCCC[C@@H](CN)C(=O)N[C@H](C(=O)N[C@@H](CC(C)C)C(=O)N[C@H](C(=O)N[C@H](C(=O)NCC(=O)N[C@@H](CC(C)C)C(=O)N1CCC[C@H]1C(=O)N[C@@H](C)C(=O)N[C@@H](CC(C)C)C(=O)N[C@H](C(=O)N[C@@H](CO)C(=O)N[C@@H](Cc1c[nH]c2ccccc12)C(=O)N[C@H](C(=O)N[C@@H](CCCCN)C(=O)N[C@@H](CCCNC(=N)N)C(=O)NCCC[C@@H](CN)C(=O)N[C@@H](CCCNC(=N)N)C(=O)N[C@@H](CCC(N)=O)C(=O)N[C@@H](CCC(N)=O)C(N)=O)[C@@H](C)CC)[C@@H](C)CC)[C@@H](C)O)[C@@H](C)O)C(C)C)C(C)C
Activity (Oryctolagus cuniculus [1]): 90.9%
Activity (Oryctolagus cuniculus [2]): 50.1%
Activity (Acinetobacter baumannii [3]): Active
Activity (NHDF): Toxic
Activity (Escherichia coli [4]): Active
MIC (Acinetobacter baumannii [5]): 4 to 8 µg/mL (≈ 1.41 to 2.81 µM)
MIC50 (Acinetobacter baumannii [5]): 6 µg/mL (≈ 2.11 µM)
MIC (Enterobacteriaceae): 4 to 128 µg/mL (≈ 1.41 to 45 µM)
MIC50 (Enterobacteriaceae): 16 µg/mL (≈ 5.62 µM)
log(activity) (Enterococcus faecalis [6]): >5
Activity (HaCaT): Toxic
MIC (Pseudomonas aeruginosa): 8 to 64 µg/mL (≈ 2.81 to 22.5 µM)
MIC50 (Pseudomonas aeruginosa): 32 µg/mL (≈ 11.2 µM)
Activity (T-cell [7]): Non-Toxic
Activity (Klebsiella pneumoniae): Active
Stability [8]: Stable
Activity (Acinetobacter baumannii [9]): Active
Activity (Oryctolagus cuniculus [10]): 30.2%
MIC (Staphylococcus aureus [11]): 16 to 64 µg/mL (≈ 5.62 to 22.5 µM)
MIC50 (Staphylococcus aureus [11]): 32 µg/mL (≈ 11.2 µM)
Activity (T-cell [12]): Non-Toxic
Ratio (Enterococcus faecalis [13]): 16
Activity (Escherichia coli [14]): Active
Activity (Oryctolagus cuniculus [15]): 75.4%
viability at 24 h, 500 ug/ml [16]: 90.7%
MIC (Candida albicans): 16 to 32 µg/mL (≈ 5.62 to 11.2 µM)
MIC50 (Candida albicans): 32 µg/mL (≈ 11.2 µM)
Activity (Enterococcus faecalis [17]): Active
MIC (Enterococcus): 4 to 16 µg/mL (≈ 1.41 to 5.62 µM)
MIC50 (Enterococcus): 8 µg/mL (≈ 2.81 µM)
HC50 at 1 h [18]: 175 µg/mL
Activity (Enterococcus faecalis [19]): Active
remaining at 4 h [20]: 87.9%
Activity (Oryctolagus cuniculus [21]): 63.6%
log(activity) (Enterococcus faecalis [22]): >5
MIC50 (Staphylococcus aureus [23]): 32 µg/mL (≈ 11.2 µM)
log(activity) (Enterococcus faecalis [24]): >5
Activity (Acinetobacter baumannii [25]): Active
Activity (Oryctolagus cuniculus [26]): 42.9%
Activity (Oryctolagus cuniculus [27]): 5.2%
Activity (T-cell [28]): Non-Toxic
Activity (Oryctolagus cuniculus [29]): 12.6%
Activity (T-cell [30]): Non-Toxic

COc1c(N2CCNC(C)C2)c(F)cc2c(=O)c(C(=O)O)cn(C3CC3)c12 (configuration not stated) [GATIFLOXACIN]
MIC (Enterococcus faecalis [31]): 4 µg/mL (≈ 10.7 µM)
Activity (Staphylococcus aureus [32]): 2.5 log10CFU
MIC (Enterococcus faecalis [33]): 8 µg/mL (≈ 21.3 µM)
Ratio (Enterococcus faecalis [34]): 8
